# Experimental data: patent US20240299431A1, “NEW SYNTHETIC AGONISTS OF TLR4 RECEPTOR” (UNIVERSITÀ DEGLI STUDI DI MILANO - BICOCCA, priority 2021, published 2024)
# “Also recorded” adds a separate entry of the source. Where two headings read alike, the source gives them in different places.
# Legend:
# human TLR4 = molecular target: T1, human TLR4 (Homo sapiens, UniProt O00206+Q9Y6Y9); assay: Inhibition of LPS-induced SEAP production in HEK-Blue hTLR4 cells (antagonism); type: cell-based
# T1 construct: host or cells: HEK-Blue hTLR4 (HEK293-derived)
# HEK-Blue Null cells = HEK-Blue Null cells SEAP reporter (lack the LPS receptors); type: cell-based, human
# [1] = Pilot in vivo toxicity of adjuvants in mice; design: species or system C57Bl/6 mice; settings: 10 μg subcutaneously, over 7 days
# Description: (§1) The ability of FP11 and FP112 to induce immune responses in vivo was compared to MPLA by evaluating antibody production in C57Bl/6 mice immunized with chicken ovalbumin (OVA) as a model antigen. Has been first evaluated the toxicity of FPs in a pilot experiment in which mice were injected subcutaneously with 10 μg of the FP11 and FP112. […] Next, mice were immunized with the tested adjuvants mixed with ovalbumin (OVA). The induction of antibody was evaluated 21 days post immunization.
# [2] = test system: C57Bl/6 mice immunized with chicken ovalbumin (OVA); assay: OVA immunization, adjuvant activity (anti-OVA total IgG); type: in vivo; settings: for anti-OVA total IgG after prime immunization compared to MPLA-OVA immunized animals / anti-OVA total IgG after prime immunization compared to OVA-immunized control: 21 days post immunization
# Description: as §1
# THP-1-X-Blue cells = assay: MTT viability assay on differentiated THP-1-X-Blue cells; type: cell-based, human; settings: THP-1-X-Blue macrophages; for toxicity (MTT viability): 0.1-50 μM; for cell viability at the highest concentration tested: 50 μM
# Description: (§2) The toxicity of the compounds was evaluated by MTT viability assay (3-(4,5-dimethylthiazol-2-yl)-2,5-diphenyltetrazolium bromide).
# A preliminary test to investigate the toxicity of this functionalized compound was performed, even though without a triplicate.
# RAW-Blue = assay: MTT viability assay on RAW-Blue cells; type: cell-based; settings: mouse macrophage line RAW-Blue
# Description: as §2
# [3] = test system: Hek-Blue, Raw-Blue, THP-1 cells; assay: In vitro tests on Hek-Blue, Raw-Blue and THP-1 cells (summary statements); type: cell-based
# [4] = test system: Hek-Blue, Raw-Blue, THP-1 cells; settings: prior art section, cited from earlier work
# [5] = test system: IL-1α, IL-1β, IL-6, TNF-α and IFNβ; settings: cited from earlier work
# human TLR2 = molecular target: T2, human TLR2 (Homo sapiens, UniProt O60603); assay: HEK-Blue hTLR2 SEAP reporter assay; type: cell-based; settings: HEK-Blue hTLR2 cells, compounds 0.1-25 μM; PAM2CSK4 positive control (1 ng/mL)
# T2 construct: host or cells: HEK-Blue hTLR2 (HEK reporter cell line)
# Excerpt: HEK-BIue™ hTLR4 and HEK-BIue™ hTLR2 (InvivoGen) are cell lines designed to study the activation of human TLR4 and TLR2 receptors, respectively, by monitoring the activation of transcription factors NF-kB and AP-1. Stimulation with TLR4 ligands (in the case of HEK-Blue hTLR4) or with TLR2 ligands (in the case of HEK-Blue hTLR2) activates NF-kB and AP-1, inducing the production and release of the SEAP reporter gene (phosphatase secreted embryonic alkaline) in the extracellular environment. The analysis of the reporter gene was performed using the QUANTI-Blue™ colorimetric assay (InvivoGen), a substrate of SEAP, which generates a chromogenic product whose absorbance is read at 630 nm. […] The molecules were subsequently tested on the HEK-Blue hTLR2 cell line with the aim of excluding the activation of this receptor. In this regard, HEK-Blue hTLR2 cells were treated with the same compounds and at the same concentrations as the tests conducted previously and the compound PAM2CSK4 was used as a positive control for TLR2 activation.
# NF-kB [6] = assay: THP-1-X Blue macrophages, NF-kB/AP-1 SEAP reporter; type: cell-based, human
# Description: (§3) THP-1-X BIue™ cell lines, monocytes differentiated into macrophages following treatment with PMA 100 ng/mL, and RAW-BIue™ were used. Similarly to HEK-Blue cells, THP-1 X-Blue and […] stably express the SEAP reporter gene, under the control of transcription factors NF-kB and AP-1. The cells were treated as previously described.
# FP200 activity was then assessed on human monocytes cell line THP-1-X-Blues, described before. Cells were treated with compounds FP11, FP112, FP20, FP200 and FP21 in increasing concentrations (0.1, 1, 10, 20 μM) and using MPLA (0.1-1-10 μM) and S-LPS (100 ng/mL) as a reference and positive receptor activation control, respectively.
# Compound FP207, functionalized with MPA, was tested in vitro on human THP-1-XBlue cells to evaluate the NF-kB activation.
# NF-kB [7] = assay: RAW-Blue murine macrophages, NF-kB/AP-1 SEAP reporter; type: cell-based; settings: RAW-blue line
# Description: as §3
# [8] = test system: interleukin-6 (IL-6), interleukin-8 (IL-8) and TNF-α; settings: murine macrophages and neutrophil granulocytes; cited from earlier work
# Escherichia coli = settings: one dose one day prior to microbial inoculation; cited from earlier work
# [9] = tumour-affected patients; cited from earlier work
# TLR4 = settings: both murine and human cells; cited from earlier work
# T2 sequence (O60603 21-784): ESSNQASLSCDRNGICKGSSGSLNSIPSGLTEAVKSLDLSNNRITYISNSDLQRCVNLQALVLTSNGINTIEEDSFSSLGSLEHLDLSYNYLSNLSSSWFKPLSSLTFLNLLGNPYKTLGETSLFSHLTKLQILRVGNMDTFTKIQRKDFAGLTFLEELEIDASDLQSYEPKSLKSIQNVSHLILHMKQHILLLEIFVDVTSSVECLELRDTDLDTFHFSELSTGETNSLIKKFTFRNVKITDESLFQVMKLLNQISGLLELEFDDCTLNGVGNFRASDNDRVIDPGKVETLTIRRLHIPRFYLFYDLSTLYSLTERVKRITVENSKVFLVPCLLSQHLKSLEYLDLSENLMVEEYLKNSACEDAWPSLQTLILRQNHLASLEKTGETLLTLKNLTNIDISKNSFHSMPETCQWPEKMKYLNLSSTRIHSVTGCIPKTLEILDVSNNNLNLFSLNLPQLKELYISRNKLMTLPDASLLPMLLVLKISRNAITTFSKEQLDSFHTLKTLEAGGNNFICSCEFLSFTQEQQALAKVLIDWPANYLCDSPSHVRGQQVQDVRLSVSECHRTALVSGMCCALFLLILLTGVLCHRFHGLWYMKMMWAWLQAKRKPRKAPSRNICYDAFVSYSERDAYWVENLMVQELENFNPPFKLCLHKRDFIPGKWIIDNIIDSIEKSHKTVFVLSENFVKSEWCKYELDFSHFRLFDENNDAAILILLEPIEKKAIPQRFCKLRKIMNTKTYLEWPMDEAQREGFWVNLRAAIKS
# T1 sequence (O00206 24-839): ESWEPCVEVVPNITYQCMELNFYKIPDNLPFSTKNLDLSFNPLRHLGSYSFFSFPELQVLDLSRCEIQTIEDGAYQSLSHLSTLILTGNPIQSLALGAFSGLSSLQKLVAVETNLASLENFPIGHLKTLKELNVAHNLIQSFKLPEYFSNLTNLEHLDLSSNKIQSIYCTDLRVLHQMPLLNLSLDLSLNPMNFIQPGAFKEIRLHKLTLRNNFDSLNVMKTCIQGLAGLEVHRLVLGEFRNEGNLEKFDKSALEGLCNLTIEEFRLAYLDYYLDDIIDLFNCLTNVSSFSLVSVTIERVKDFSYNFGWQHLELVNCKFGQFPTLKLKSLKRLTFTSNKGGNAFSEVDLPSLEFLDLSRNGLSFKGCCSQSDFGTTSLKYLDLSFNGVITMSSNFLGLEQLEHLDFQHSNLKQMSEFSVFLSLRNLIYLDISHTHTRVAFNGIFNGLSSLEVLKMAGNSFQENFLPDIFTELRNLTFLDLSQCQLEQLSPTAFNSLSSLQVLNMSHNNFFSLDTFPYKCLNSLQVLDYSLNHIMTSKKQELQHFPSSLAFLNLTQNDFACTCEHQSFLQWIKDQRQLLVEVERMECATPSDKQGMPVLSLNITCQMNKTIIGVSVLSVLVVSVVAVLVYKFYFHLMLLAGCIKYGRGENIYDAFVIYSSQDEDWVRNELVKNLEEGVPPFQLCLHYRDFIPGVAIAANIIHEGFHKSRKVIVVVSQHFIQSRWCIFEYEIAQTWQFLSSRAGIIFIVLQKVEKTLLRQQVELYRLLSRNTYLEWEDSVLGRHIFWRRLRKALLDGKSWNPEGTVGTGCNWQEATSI
# T1 sequence (Q9Y6Y9 17-160 limits assumed): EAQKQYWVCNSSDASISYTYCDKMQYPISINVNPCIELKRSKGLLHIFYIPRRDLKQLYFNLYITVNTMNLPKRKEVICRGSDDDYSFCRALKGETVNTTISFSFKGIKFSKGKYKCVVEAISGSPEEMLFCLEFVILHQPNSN
molecule,measurement,setting,value
CCCCCCCCCCCCCC(=O)NC1C(OC(=O)CCCCCCCCCCCCC)[C@H](OC(=O)CCCCCCCCCCCCC)C(CO)O[C@H]1OP(=O)(O)O (some centres unmarked) [FP11],inhibition of LPS-induced SEAP production (TLR4 antagonistic activity),human TLR4,did not inhibit LPS-induced SEAP production
same,activity on HEK-Blue Null cells,HEK-Blue Null cells,lack of activity
same,"adverse effect on mice (local response at injection site, weight, alertness)",[1],no obvious adverse effect
same,anti-OVA total IgG after prime immunization compared to MPLA-OVA immunized animals,[2],significantly lower levels
same,anti-OVA total IgG after prime immunization compared to OVA-immunized control,[2],marginally higher levels
CCCCCCCCCC(=O)NC1C(OC(=O)CCCCCCCCC)OC(CO)C(OP(=O)([O-])[O-])C1OC(=O)CCCCCCCCC.[Na+].[Na+] (centres unmarked) [FP22],toxicity (MTT viability),THP-1-X-Blue cells,non-toxic
same,toxicity (MTT viability),RAW-Blue; 50 μM,increase in the toxicity
CCCCCCCCCCCC(=O)NC1C(OP(=O)(O)O)OC(CO)C(OC(=O)CCCCCCCCCCC)C1OC(=O)CCCCCCCCCCC (centres unmarked) [FP112],inhibition of LPS-induced SEAP production (TLR4 antagonistic activity),human TLR4,did not inhibit LPS-induced SEAP production
same,activity on HEK-Blue Null cells,HEK-Blue Null cells,lack of activity
same,"adverse effect on mice (local response at injection site, weight, alertness)",[1],no collateral damage; also recorded: no obvious adverse effect
same,anti-OVA total IgG after prime immunization compared to MPLA-OVA immunized animals,[2],significantly lower levels
same,anti-OVA total IgG after prime immunization compared to OVA-immunized control,[2],marginally higher levels
same,ova-specific IgG levels after boost immunization,"[2]; boost on day 22, examined 14 days later",higher than those in the FP11-immunized group
same,effectiveness/potency as vaccine adjuvant in vivo,[2]; compared to FP11 and MPLA,comparable to that of MPLA; also recorded: more effective adjuvant in vivo than FP11 and has a potency comparable or even greater than MPLA
same,toxicity in vitro,[3],low toxicity
same,pro-inflammatory activity,[3]; 10 μM,good pro-inflammatory activy
same,pro-inflammatory activity,[4]; 10 μM,good pro-inflammatory activity
same,toxicity in vitro,[4],low toxicity
same,release of proinflammatory cytokines,[5],able to stimulate the release of numerous proinflammatory cytokines
PAM2CSK4,activation of TLR2 (SEAP),human TLR2,strong activation of TLR2
CCCCCCCCCCCCCC(=O)OC1OC(CO)C(OP(=O)([O-])[O-])C(OC(=O)CCCCCCCCCCCCC)C1NC(=O)CCCCCCCCCCC.[Na+].[Na+] (centres unmarked) [FP21],activation of TLR2 (SEAP),human TLR2,did not produce any activation
same,concentration from which the compounds activate significantly,NF-kB [6],10 µM
same,lowest concentration tested at which the compounds are active,NF-kB [7],0.1 µM
same,toxicity (MTT viability),THP-1-X-Blue cells,non-toxic
same,toxicity (MTT viability),RAW-Blue; 50 μM,increase in the toxicity
CCCCCCCCCCCCCC(=O)NC1C(OC(=O)CCCCCCCCCCCCC)OC(CO)C(OP(=O)([O-])[O-])C1OC(=O)CCCCCCCCCCCCC.[Na+].[Na+] (centres unmarked) [FP23],activation of TLR2 (SEAP),human TLR2,did not produce any activation
same,lowest concentration tested at which the compounds are active,NF-kB [7],0.1 µM
same,cell viability at the highest concentration tested,THP-1-X-Blue cells,decrease in cell viability
same,toxicity (MTT viability),THP-1-X-Blue cells,non-toxic
same,toxicity (MTT viability),RAW-Blue; 25 μM,show toxicity
same,toxicity (MTT viability),RAW-Blue; 50 μM,increase in the toxicity
CCCCCCCCCCC[C@@H](O)CC(=O)N[C@H]1[C@@H](OP(=O)(O)O)O[C@H](CO)[C@@H](OC(=O)C[C@H](O)CCCCCCCCCCC)[C@@H]1OC(=O)C[C@H](O)CCCCCCCCCCC [SDZ MRL 953],stimulation of release of inflammatory cytokines,[8],potent activity
same,effect on curative effects of antibiotics,Escherichia coli,dramatically increased the curative effects of antibiotics administered
same,granulocyte counts and serum cytokine levels,[9],"increases granulocyte counts and serum levels of G-CSF and interleukin-6 (IL-6), but not of pro-inflammatory cytokines TNF-α, IL-1b, and IL-8"
same,safety and tolerability in humans,[9],safe and of excellent tolerability
CCCCCCCCCCCCCC(=O)OC(CCCCCCCCCCC)CC(=O)O[C@H]1[C@H](OP(=O)(O)O)[C@@H](CO)OC(O)[C@@H]1NC(=O)CC(O)CCCCCCCCCCC (some centres unmarked) [GLA60],stimulation of TLR4-dependent production of cytokines TNF-α and IL-6,TLR4,active
CCCCCCCCCCCC(=O)NC1C(OC(=O)CCCCCCCCC)OC(CO)C(OP(=O)([O-])[O-])C1OC(=O)CCCCCCCCC.[Na+].[Na+] (centres unmarked) [FP24],activation of TLR2 (SEAP),human TLR2,did not produce any activation
same,concentration from which the compounds activate significantly,NF-kB [6],10 µM
same,lowest concentration tested at which the compounds are active,NF-kB [7],0.1 µM
same,toxicity (MTT viability),THP-1-X-Blue cells,non-toxic
same,toxicity (MTT viability),RAW-Blue; 50 μM,increase in the toxicity
CCCCCCCCCCCC(=O)NC1C(OC(=O)CCCCCCCCCCC)OC(CO)C(OP(=O)([O-])[O-])C1OC(=O)CCCCCCCCCCC.[Na+].[Na+] (centres unmarked) [FP20],activation of TLR2 (SEAP),human TLR2,did not produce any activation
same,concentration from which the compounds activate significantly,NF-kB [6],10 µM
same,lowest concentration tested at which the compounds are active,NF-kB [7],0.1 µM
same,cell viability at the highest concentration tested,THP-1-X-Blue cells,decrease in cell viability
same,toxicity (MTT viability),THP-1-X-Blue cells,non-toxic
same,toxicity (MTT viability),RAW-Blue; 50 μM,increase in the toxicity
